Assay results taken from patent US6887896B1, “7-[(7-Alkoxy)-chrom-3-en-6-yl]-heptatrienoic acid and 7-[(3-alkoxy)-5,6-dihydronaphthalen-2-yl]-heptatrienoic acid derivatives having serum glucose reducing activity” (Allergan, Inc., priority 2003, dated 2005).
Values belong to the compound of their own block, whether it stands above or below them.

Tests used:
[1] = biological target: T1, RARβ (Homo sapiens, UniProt P10826); experiment: ligand binding assay, RARβ; details: for Ki: read-out: RAR Bind. Ki β; for Kd: Table 9 (Formula F), read-out: RAR β Kd
T1 sequence (P10826 1-455): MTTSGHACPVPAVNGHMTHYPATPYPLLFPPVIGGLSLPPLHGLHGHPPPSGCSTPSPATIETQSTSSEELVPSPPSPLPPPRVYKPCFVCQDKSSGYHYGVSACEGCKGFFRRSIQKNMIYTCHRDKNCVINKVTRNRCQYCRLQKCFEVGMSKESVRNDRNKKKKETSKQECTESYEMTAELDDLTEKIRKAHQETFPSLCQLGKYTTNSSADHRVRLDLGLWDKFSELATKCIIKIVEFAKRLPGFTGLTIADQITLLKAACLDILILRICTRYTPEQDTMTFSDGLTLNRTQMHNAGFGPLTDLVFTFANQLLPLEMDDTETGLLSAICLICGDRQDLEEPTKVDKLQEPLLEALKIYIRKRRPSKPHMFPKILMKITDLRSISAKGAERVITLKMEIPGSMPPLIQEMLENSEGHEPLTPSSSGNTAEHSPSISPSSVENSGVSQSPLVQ
Source text: (§1) Specifically, one such assay is a chimeric receptor transactivation assay which tests for agonist-like activity in the R RAPE and RAR7 receptor subtypes, and which is based on work published by Feigner, P. L. and Holm, M (1989) Focus, 112 is described in detail in U.S. Pat. No. 5,455,265. The specification of U.S. Pat. No. 5,455,265 is hereby expressly incorporated by reference. A holoreceptor transactivation assay and a ligand binding assay which measure the antagonist/agonist like activity of the compounds of the invention, or their ability to bind to the several retinoid receptor subtypes, respectively, are described in published PCT Application No. WO WO93/11755 (particularly on pages 30-33 and 37-41) published on Jun. 24, 1993, the specification of which is also incorporated herein by reference. A detailed experimental procedure for holoreceptor transactivations has been described by Heyman et al. Cell 68, 397-406, (1992); Allegretto et al. J. Biol. Chem. 268, 26625-26633, and Mangelsdorf et al. The Retinoids: Biology, Chemistry and Medicine, pp 319-349, Raven Press Ltd., New York, which are expressly incorporated herein by reference. The results obtained in this assay are expressed in EC50 numbers, as they are also in the chimeric receptor transactivation assay. The results of the ligand binding assay are expressed in Ki numbers. (See Cheng et al. Biochemical Pharmacology Vol. 22 pp 3099-3108, expressly incorporated herein by reference.)
(§2) Generally speaking, in the tables disclosing the results of transactivation and binding assays the numbers in parentheses indicate efficacy as a percentage compared to the standard compound, (2E,4E,1′S,2′S)-3-methyl-5-[2′-methyl-2′-(5,5,8,8-tetramethyl-5,6,7,8-tetrahydro-naphthalen-2-yl)cyclopropyl]-penta-2,4-dienoic acid and the other numbers indicate the measured EC50 and K; in nanomolar concentration.

[2] = biological target: T2, RXRα (Homo sapiens, UniProt P19793); experiment: ligand binding assay, RXRα; details: for Ki: read-out: RXR Bind Ki α; for Kd: Table 9 (Formula F), read-out: RXR α Kd
T2 construct: expressed in transfected cells
T2 sequence (P19793 1-462): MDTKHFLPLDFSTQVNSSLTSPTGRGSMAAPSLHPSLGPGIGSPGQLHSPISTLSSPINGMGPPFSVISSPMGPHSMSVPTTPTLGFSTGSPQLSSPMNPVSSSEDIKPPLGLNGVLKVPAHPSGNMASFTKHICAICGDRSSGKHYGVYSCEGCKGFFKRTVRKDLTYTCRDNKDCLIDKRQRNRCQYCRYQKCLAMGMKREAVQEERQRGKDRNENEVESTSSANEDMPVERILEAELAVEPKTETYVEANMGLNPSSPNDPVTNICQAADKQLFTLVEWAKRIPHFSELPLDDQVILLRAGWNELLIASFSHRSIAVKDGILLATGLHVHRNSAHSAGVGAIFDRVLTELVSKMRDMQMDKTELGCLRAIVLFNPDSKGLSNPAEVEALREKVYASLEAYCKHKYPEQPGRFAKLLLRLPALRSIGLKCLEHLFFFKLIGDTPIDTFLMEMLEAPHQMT
Source text: as §1, §2

[3] = biological target: T3, RARα (Homo sapiens, UniProt P10276); experiment: ligand binding assay, RARα; details: for Ki: read-out: RAR Bind. Ki α; for Kd: Table 9 (Formula F), read-out: RAR α Kd
T3 sequence (P10276 1-462): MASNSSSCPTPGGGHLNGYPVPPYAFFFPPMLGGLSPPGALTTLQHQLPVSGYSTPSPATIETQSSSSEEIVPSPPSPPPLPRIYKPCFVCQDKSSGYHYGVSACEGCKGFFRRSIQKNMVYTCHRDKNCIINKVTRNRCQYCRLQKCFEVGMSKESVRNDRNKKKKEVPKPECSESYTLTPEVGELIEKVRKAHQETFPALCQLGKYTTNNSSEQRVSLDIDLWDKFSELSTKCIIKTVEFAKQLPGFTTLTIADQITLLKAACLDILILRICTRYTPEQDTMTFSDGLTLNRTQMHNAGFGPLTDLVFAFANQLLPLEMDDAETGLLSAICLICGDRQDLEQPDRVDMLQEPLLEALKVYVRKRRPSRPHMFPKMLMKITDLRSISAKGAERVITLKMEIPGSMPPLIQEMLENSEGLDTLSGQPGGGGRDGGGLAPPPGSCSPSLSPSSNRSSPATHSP
Source text: as §1, §2

[4] = biological target: T4, RXRβ (UniProt P28704); experiment: ligand binding assay, RXRβ; details: for Ki: read-out: RXR Bind Ki β; for Kd: Table 9 (Formula F), read-out: RXR β Kd
T4 sequence (P28704 1-520): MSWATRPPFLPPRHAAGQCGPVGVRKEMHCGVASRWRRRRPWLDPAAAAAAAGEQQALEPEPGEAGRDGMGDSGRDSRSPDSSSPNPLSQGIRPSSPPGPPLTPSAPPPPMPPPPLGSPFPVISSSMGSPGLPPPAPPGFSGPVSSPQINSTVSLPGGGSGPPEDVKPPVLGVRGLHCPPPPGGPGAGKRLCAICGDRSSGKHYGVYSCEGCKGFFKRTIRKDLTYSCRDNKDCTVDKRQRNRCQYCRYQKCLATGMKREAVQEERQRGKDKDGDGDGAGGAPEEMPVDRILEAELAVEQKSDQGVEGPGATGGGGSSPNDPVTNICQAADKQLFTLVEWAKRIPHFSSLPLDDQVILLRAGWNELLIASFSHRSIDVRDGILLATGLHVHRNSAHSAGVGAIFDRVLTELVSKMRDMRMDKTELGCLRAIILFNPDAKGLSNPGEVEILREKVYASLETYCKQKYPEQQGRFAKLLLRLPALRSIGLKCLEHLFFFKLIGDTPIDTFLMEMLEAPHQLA
Source text: as §1, §2

[5] = biological target: T4, RXRβ; experiment: holoreceptor transactivation assay, RXRβ; format: cell-based
Source text: as §1
(§3) Efficacy in a transactivation assay is expressed as a percentage of the maximum potency attained by the compound compared to a standard which, in this case, is the compound named (2E,4E,1′S,2′S)-3-methyl-5-[2′-methyl-2′-(5,5,8,8-tetramethyl-5,6,7,8-tetrahydro-naphthalen-2-yl)-cyclopropyl]-penta-2,4-dienoic acid. This standard compound is described in U.S. Pat. No. 6,114,533.
(§4) The specification of this application for patent is organized in several sections in accordance with structural Formulas A through F each of which discloses a group of preferred compounds within the scope of the invention. Tables that disclose the activity of certain exemplary compounds of the invention in the above-described RXR receptor transactivation and binding assays are found in the corresponding sections. […] The transactivation data pertaining to the activation of RXR receptors were obtained in the holoreceptor assay.
as §2

[6] = biological target: T5, RARγ (Homo sapiens, UniProt P13631); experiment: ligand binding assay, RARγ; details: for Ki: read-out: RAR Bind. Ki γ; for Kd: Table 9 (Formula F), read-out: RAR γ Kd
T5 sequence (P13631 1-454): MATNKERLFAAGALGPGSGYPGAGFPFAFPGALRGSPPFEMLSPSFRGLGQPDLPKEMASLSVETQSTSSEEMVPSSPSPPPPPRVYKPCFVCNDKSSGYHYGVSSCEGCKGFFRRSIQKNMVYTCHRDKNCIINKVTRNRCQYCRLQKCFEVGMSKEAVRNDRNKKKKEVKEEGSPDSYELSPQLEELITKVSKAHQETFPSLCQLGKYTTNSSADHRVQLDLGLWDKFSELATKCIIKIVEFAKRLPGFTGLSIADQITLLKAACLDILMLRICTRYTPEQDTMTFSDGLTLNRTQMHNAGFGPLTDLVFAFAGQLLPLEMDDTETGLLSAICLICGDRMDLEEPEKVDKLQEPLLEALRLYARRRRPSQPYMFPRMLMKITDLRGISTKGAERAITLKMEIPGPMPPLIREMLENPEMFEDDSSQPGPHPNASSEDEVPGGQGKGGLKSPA
Source text: as §1, §2

[7] = biological target: T2, RXRα; experiment: holoreceptor transactivation assay, RXRα; format: cell-based
Source text: as §1, §3, §4, §2

[8] = test system: ob/ob mice; experiment: serum glucose, triglycerides and T4 in ob/ob mice, drug mixed in control diet over 7 days; format: in vivo; details: 2.5 mg/kg per day in diet
[9] = test system: ob/ob mice; experiment: serum glucose, triglycerides and T4 in diabetic mice, oral gavage in corn oil daily for seven days; format: in vivo; details: for Glucose Day 0 / Triglycerides Day 0: day 0 (pre-treatment)
[10] = 4 mg/kg, corn oil vehicle (second Table 9)
[11] = 5 mg/kg, corn oil vehicle (Table 7)

Compound: CCOc1cc2c(cc1\C(C)=C/C=C/C(C)=C/C(=O)O)C(C(C)C)=CC(C)(C)O2 [Compound 47, 7-(7-Ethoxy-4-isopropyl-2,2-dimethyl-2H-chromen-6-yl)-3-methyl-octa-2E,4E,6Z-trienoic acid]
- Ki [1]: 3900 nM
- Ki [2]: 15 nM
- Ki [3]: > 10000 nM
- Ki [4]: 150 nM
- EC50 ([5]; holoreceptor transactivation, read-out: RXR Trans. EC50 β): 288 nM
- RXR Trans. efficacy (number in parentheses) β ([5]; percentage compared to the standard compound): 6%

Compound: CCOc1cc2c(cc1\C(C)=C(F)/C=C/C(C)=C/C(=O)O)C(C(C)C)=CC(C)(C)O2 [Compound 124, (2E,4E,6E)-7-(7-Ethoxy-4-isopropyl-2,2-dimethyl-2H-Chromen-6-yl)-6-fluoro-3-methyl-octa-2.46-trienoic acid]
- Ki [1]: 1000 nM
- Ki [6]: 3300 nM
- Ki [2]: 6 nM
- Ki [3]: 523 nM
- Ki [4]: 42 nM

Compound: CCCOc1cc2c(cc1\C(C)=C(F)/C=C/C(C)=C/C(=O)O)C(C(C)C)=CC(C)(C)O2 [Compound 125, (2E,4E,6E) 6-Fluoro-7-(4-isopropyl-2,2-dimethyl-7-propoxy-2H-chromen-6-yl)-3-methyl-octa-2,4,6-trienoic acid]
- Ki [1]: 3 nM
- Ki [6]: 43 nM
- Ki [2]: 8 nM
- Ki [3]: 12 nM
- Ki [4]: 73 nM

Compound: CCCCOc1cc2c(cc1\C(C)=C(F)/C=C/C(C)=C/C(=O)O)C(C(C)C)=CC(C)(C)O2 [Compound 126, (2E,4E,6E)-7-(7-Butoxy-4-isopropyl-2,2-dimethyl-2H-chromen-6-yl)-6-fluoro-3-methyl-octa-2,4,6-trienoic acid]
- Ki [1]: 522 nM
- Ki [6]: 3000 nM
- Ki [2]: 8 nM
- Ki [3]: 860 nM
- Ki [4]: 59 nM

Compound: CC(/C=C/[C@@H]1C[C@]1(C)c1ccc2c(c1)C(C)(C)CCC2(C)C)=C\C(=O)O [Standard compound, (2E,4E,1′S,2′S)-3-methyl-5-[2′-methyl-2′-(5,5,8,8-tetramethyl-5,6,7,8-tetrahydro-naphthalen-2-yl)-cyclopropyl]-penta-2,4-dienoic acid]
- Glucose Day 3, 3 h [8]: 107 mg/dL
- Glucose Day 6, 3 h [8]: 136 mg/dL
- T4 Day 7 [8]: 0.8 µg/dL
- Triglycerides Day 3, 3 h [8]: 55 ± 23 mg/dL
- Glucose Day 0 ([8]; day 0 (pre-treatment)): 246 mg/dL
- Triglycerides Day 0 ([8]; day 0 (pre-treatment)): 92 ± 41 mg/dL
- Glucose Day 3, 3 h [9, 10]: 312 mg/dL
- Glucose Day 6, 3 h [9, 10]: 291 mg/dL
- T4 Day 7 [9, 10]: 0.5 µg/dL
- Triglycerides Day 3, 3 h [9, 10]: 309 mg/dL
- Glucose Day 0 [9, 10]: 544 mg/dL
- Triglycerides Day 0 [9, 10]: 261 mg/dL
- Glucose Day 3, 3 h [9, 11]: 301 mg/dL
- Glucose Day 6, 3 h [9, 11]: 218 mg/dL
- T4 Day 7 [9, 11]: 2.7 µg/dL
- Triglycerides Day 3, 3 h [9, 11]: 147 mg/dL
- Glucose Day 0 [9, 11]: 389 mg/dL
- Triglycerides Day 0 [9, 11]: 149 mg/dL
- serum thyroxine levels (in words) ([9]; diabetic mammals): undesirable side effect of reducing serum thyroxine levels

Other lines, results leading:

- Kd [1]: 192 nM
- Kd [6]: 810 nM
- Kd [2]: 2 nM
- EC50 ([7]; holoreceptor transactivation, read-out: RXR Trans. EC50 α): 1 nM
- Emax ([7]; percentage compared to the standard compound, read-out: RXR Trans. efficacy (number in parentheses) α): 5%
- Kd [3]: 91 nM
- Kd [4]: 11 nM
Compound: CCCOc1c(\C(C)=C(F)/C=C/C(C)=C/C(=O)O)cc2c(c1Br)C(C)(C)CC=C2C(C)C [Compound A-173, (2E,4E,6E)-7-(4-Bromo-8-isopropyl-5,5-dimethyl-3-propoxy-5,6-dihydro-nahthalen-2-yl)-6-fluoro-3-methyl-octa-2,4,6-trienoic acid]

- Kd [1]: 280 nM
- Kd [6]: 866 nM
- Kd [2]: 9 nM
- Kd [3]: 458 nM
- Kd [4]: 31 nM
Compound: CC(/C=C/C(F)=C(/C)c1cc2c(c(Br)c1OC(C)C)C(C)(C)CC=C2C(C)(C)C)=C\C(=O)O [Compound A-175, (2E,4E,6E)-7-(4 Bromo-8-tert-butyl-3-isopropoxy-5,5-dimethyl-5,6 dihydro-naphthalen-2-yl)-6-fluoro-3-methyl-octa-2,4,6-trienoic acid]
